Laboratory results from US12544395B2, “Combination compositions comprising a beta-lactamase inhibitor and uses thereof” (priority 2018, dated 2026).
In brackets after ≈: the same amount, converted by molar mass. Like-named read-outs stand apart in the source and are kept apart here.

How the values were obtained:
E. coli Si-FDL-GES = assay: microbe, parasite or virus in culture; assay type: cell-based
[1] = tested on: ceftibuten-resistant Enterobacteriaceae expressing ESBL (n=20); assay: Checkerboard broth microdilution MIC, BLI concentration impact; assay type: cell-based; conditions: for MIC50: read-out: CTB MIC50; for MIC90: read-out: CTB MIC90
Procedure: Minimum inhibitory concentrations (MICs) were determined by broth microdilution method following CLSI guidelines. Tested strains were ceftibuten-resistant Enterobacteriaceae expressing ESBL (n=20), KPC (n=20), OXA-48 (n=20) and/or Class C (n=20) beta-lactamases. For each isolate, one microtiter plate was prepared and formatted as a checkerboard with the BLI (Compound 2 or clavulanic acid) titrated down the plate and ceftibuten titrated across the plate. Each agent was also tested alone. MICs were determined as the well with the lowest concentration of ceftibuten without visible growth at each concentration of BLI.

[2] = tested on: E. coli (UNT-204-1, TEM-1 plus CTX-M-15 producing); assay type: in vivo, C3H/HeJ mice; conditions: for Log10 Change in CFU/Sample vs. untreated controls, Day 7, Bladder / Log10 Change in CFU/Sample vs. untreated controls, Day 7, Kidneys / Log10 Change in CFU/Sample vs. untreated controls, Day 7, Urine: SC, BID, 3 days
[3] = tested on: E. coli expressing TEM-1+CTX-M-15, CTX-M-15, and KPC-2+SHV-12; assay: Murine ascending UTI model, three strains; assay type: in vivo, mice
[4] = tested on: three strains of E. coli expressing TEM-1+CTX-M-15, CTX-M-15, and KPC-2+SHV-12; assay: MIC against the UTI test strains; assay type: cell-based
[5] = tested on: 21 strains of Enterobacteriaceae expressing various beta-lactamases; assay: MIC testing of thigh model strains; assay type: cell-based
[6] = tested on: OXA-48-expressing Enterobacteriaceae (n = 39); assay: Broth microdilution MIC, ceftibuten/Compound 2 vs IV comparators
SHV-5 = biological target: T1, SHV-5 (Klebsiella pneumoniae, UniProt P0A3M1); assay: Beta-lactamase enzyme inhibition (IC50); assay type: biochemical
T1 construct: expressed as native untagged proteins; made in house; host or cells: E. coli BL21(DE3)

VIM-2 = biological target: T2, VIM-2 (Escherichia coli, UniProt Q5U7L7); assay: Beta-lactamase enzyme inhibition (IC50); assay type: biochemical
T2 construct: expressed as native untagged proteins; made in house; host or cells: E. coli BL21(DE3)
Procedure: For VIM-2 metallo beta-lactamase, the procedure was identical with the following exceptions, first the protein was not pH adjusted to pH 5 with 50 mM sodium acetate, second, the chromatography step was changed to a 5 ml Q sepharose anion exchange column pre-equilibrated with 50 mM Hepes pH 7.5, and elution of the protein was achieved by a linear gradient of NaCl (0-600 mM). Finally, the VIM-2 purification required a second run (3rd step) on the Q sepharose anion exchange column to achieve acceptable purity (>90%).

NDM-1 = biological target: T3, NDM-1 (Klebsiella pneumoniae, UniProt C7C422); assay: Beta-lactamase enzyme inhibition (IC50); assay type: biochemical
T3 construct: expressed as native untagged proteins; made in house; host or cells: E. coli BL21(DE3)

CTX-M-15 = biological target: T4, CTX-M-15 (Escherichia coli, UniProt Q9EXV5); assay type: biochemical
T4 construct: expressed as native untagged proteins; made in house; host or cells: E. coli BL21(DE3)
Procedure: (§1) Assays (200 μl final volume) were performed in PBS in triplicate using 96-well microtiter plates. Cephalothin was used as the substrate for p99 AmpC and CTX-M-15 (50 μM for p99 AmpC; 75 μM for CTX-M-15) and reactions were initiated by addition of enzyme (0.2 nM p99 AmpC; 3 nM CTX-M-15). The decrease in the absorbance at λ260 nm was recorded continuously on a BioTek Powerwave XS2 microplate reader. […] SHV-5 reactions were initiated with 40 nM enzyme, using cefotaxime (100 μM) as the substrate. […] For KPC-2, imipenem (75 μM) was used as the substrate, and reactions initiated with 3 nM enzyme. Reaction progress was monitored by measuring the reduction in absorbance at λ300 nm in continuous fashion. […] Time courses for reaction progress were fit to the following equation, using Prism 7.04 (GraphPad Software, LaJolla, USA) to obtain kobs:
(§2) Off-rates for Compound 2 with the various beta-lactamases were determined by jump dilution experiments, performed in triplicate. Enzyme and inhibitor were incubated at room temperature for 10 minutes. Enzyme:inhibitor complexes were then diluted 800-fold into reaction buffer (50 mM Hepes, pH 7.0, 0.1 mg/ml BSA), and 20 μL of the diluted reaction immediately added to 180 μl of 110 μM nitrocefin in a 96-well microtiter plate, and the absorbance at λ 486 nm measured continuously on a BioTek Powerwave XS2 microplate reader. The resulting progress curves were fit to a single exponential, from which koff was derived. Half-life was determined using:
(§3) To determine Ki, plots of the inhibitor concentration versus inverse the initial velocity were fit to a linear equation, and the observed Ki corrected for substrate concentration and affinity by: […]

KPC-2 = biological target: T5, KPC-2 (Klebsiella pneumoniae, UniProt Q9F663); assay type: biochemical
T5 construct: expressed as native untagged proteins; made in house; host or cells: E. coli BL21(DE3)
Procedure: as §1, §2, §3

[7] = Single ascending dose pharmacokinetics, Solutol HS-15:Water (20:80); assay type: in vivo, Cynomolgus monkeys; conditions: cynomolgus monkey, plasma, iv, 1 mg/kg
Procedure: This study included dose concentrations ranging from 2-120 mg/mL.

[8] = Metabolic stability in liver S9; assay type: in vitro ADME, CD-1 mouse; conditions: CD-1, liver S9; Mouse; test conc. 3 μM
[9] = Metabolic stability in intestinal S9; assay type: in vitro ADME, beagle dog; conditions: beagle, intestinal S9; Dog; test conc. 3 μM
[10] = Metabolic stability in plasma; assay type: in vitro ADME; conditions: cynomolgus, Monkey, test conc. 3 μM
[11] = added to ceftibuten at 3, 10, 30, 100, and 300 mg/kg, SC every 12 hours for 3 days

## O=C(O)[C@H]1/C(=C/CO)O[C@@H]2CC(=O)N21 [Clavulanic acid, clavulanic acid, reference compound]
E. coli Si-FDL-GES; with inhibitor at 4 μg/mL
  MIC of cefalexin (LEX): 1 µg/mL
  MIC of cefdinir (CDR): 1 µg/mL
  MIC of cefixime (CFM): 0.5 µg/mL
  MIC of ceftibuten (CTB): 0.25 µg/mL
[1]
  MIC50: 0.5 µg/mL
  MIC90: 2 µg/mL

## Nc1nc(/C(=C/CC(=O)O)C(=O)N[C@@H]2C(=O)N3C(C(=O)O)=CCS[C@H]23)cs1 [Ceftibuten, ceftibuten, reference compound]
[2]; 3 mg/kg
  Log10 Change in CFU/Sample vs. untreated controls, Day 7, Bladder: −0.03 Log10 CFU/Sample
  Log10 Change in CFU/Sample vs. untreated controls, Day 7, Kidneys: −0.44 Log10 CFU/Sample
  Log10 Change in CFU/Sample vs. untreated controls, Day 7, Urine: −1.24 Log10 CFU/Sample
[2]; 10 mg/kg
  Log10 Change in CFU/Sample vs. untreated controls, Day 7, Bladder: −1.51 Log10 CFU/Sample
  Log10 Change in CFU/Sample vs. untreated controls, Day 7, Kidneys: −1.55 Log10 CFU/Sample
  Log10 Change in CFU/Sample vs. untreated controls, Day 7, Urine: −0.59 Log10 CFU/Sample
[2]; 30 mg/kg
  Log10 Change in CFU/Sample vs. untreated controls, Day 7, Bladder: −2.08 Log10 CFU/Sample
  Log10 Change in CFU/Sample vs. untreated controls, Day 7, Kidneys: −1.57 Log10 CFU/Sample
  Log10 Change in CFU/Sample vs. untreated controls, Day 7, Urine: −2.28 Log10 CFU/Sample
[2]; 100 mg/kg, SC twice daily for 3 days
  reduction of bacterial load in the kidneys (average): 2.11 log10 CFU
[2]; 100 mg/kg
  Log10 Change in CFU/Sample vs. untreated controls, Day 7, Bladder: −2.26 Log10 CFU/Sample
  Log10 Change in CFU/Sample vs. untreated controls, Day 7, Kidneys: −2.11 Log10 CFU/Sample
  Log10 Change in CFU/Sample vs. untreated controls, Day 7, Urine: −2.54 Log10 CFU/Sample
[2]; 300 mg/kg
  Log10 Change in CFU/Sample vs. untreated controls, Day 7, Bladder: −1.83 Log10 CFU/Sample
  Log10 Change in CFU/Sample vs. untreated controls, Day 7, Kidneys: −2.14 Log10 CFU/Sample
  Log10 Change in CFU/Sample vs. untreated controls, Day 7, Urine: −3.37 Log10 CFU/Sample
[3]; mouse, in vivo
  CFU reductions in the kidneys: minimal CFU reductions
[4]; Escherichia coli, alone, read-out: Ceftibuten MICs
  MIC: 8 to 64 µg/mL (≈ 19.5 to 156 µM)
[5]; read-out: ceftibuten MICs
  MIC: ≥ 32 µg/mL
[6]
  MIC50: 16 µg/mL (≈ 39 µM)
  MIC90: ≥ 32 µg/mL

## CCC(=O)N[C@H]1Cc2cccc(C(=O)O)c2OB1O [Compound 2, (R)-2-hydroxy-3-propionamido-3,4-dihydro-2H-benzo[e][1,2]oxaborinine-8-carboxylic acid]
SHV-5
  IC50: 368 nM
VIM-2
  IC50: 9040 nM
NDM-1
  IC50: 38100 nM
CTX-M-15
  Ki: 10 nM
  k−2: 4.5 ± 0.1 10^−4 s^−1
  t1/2: 0.433 ± 0.01 h
KPC-2
  Ki: 110 nM
  k−2: 2.5 ± 0.1 10^−4 s^−1
  t1/2: 0.767 ± 0.0333 h
E. coli Si-FDL-GES; with inhibitor at 1 μg/mL
  MIC of cefalexin (LEX): 0.5 µg/mL
  MIC of cefdinir (CDR): 0.5 µg/mL
  MIC of cefixime (CFM): 0.25 µg/mL
  MIC of ceftibuten (CTB): 0.125 µg/mL
E. coli Si-FDL-GES; with inhibitor at 2 μg/mL
  MIC of cefalexin (LEX): 0.5 µg/mL
  MIC of cefdinir (CDR): 0.5 µg/mL
  MIC of cefixime (CFM): 0.125 µg/mL
  MIC of ceftibuten (CTB): 0.125 µg/mL
E. coli Si-FDL-GES; with inhibitor at 4 μg/mL
  MIC of cefalexin (LEX): 0.5 µg/mL
  MIC of cefdinir (CDR): 0.5 µg/mL
  MIC of cefixime (CFM): 0.125 µg/mL
  MIC of ceftibuten (CTB): 0.125 µg/mL
[3]; [11]
  bacterial titers lower than ceftibuten alone, bladders: 3.2 log10 CFU/g
  bacterial titers lower than ceftibuten alone, urine: up to 4 log10 CFU/mL
[4]; with Compound 2 at a fixed concentration of 4 μg/mL
  ceftibuten MICs: <0.06 to 0.12 µg/mL
[1]
  MIC50: 0.25 µg/mL
  MIC90: 0.5 µg/mL
[7]
  AUC(0-inf): 10000 ng·h/mL
  Cmax: 26000 ng/mL
[8]
  half-life at 3 μM: > 2 h
[9]
  half-life at 3 μM: > 2 h
[10]
  half-life at 3 μM: > 2 h
[5]; with Compound 2 fixed at 4 mg/L
  ceftibuten MICs: ≤ 2 µg/mL
